Laboratory results as given in article PMC6934184, “Selective DNA-PKcs inhibition extends the therapeutic index of localized radiotherapy and chemotherapy” (The Journal of Clinical Investigation, 2019).

Target: T1, MAP4K5 (KHS1) (Homo sapiens, UniProt Q9Y4K4)
T1 construct: purchased Thermo Fisher Scientific (Life Technologies) SelectScreen
Experiment: SelectScreen Z'LYTE
Format: biochemical
Outline: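 SelectScreen broad panel; activity (Z'LYTE, Adapta) plus binding formats. ATP: Km app for CSF1R Z'LYTE; 10 for CAMK1 Adapta. Readout = % per kinase.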

T1 sequence (Q9Y4K4 whole entry): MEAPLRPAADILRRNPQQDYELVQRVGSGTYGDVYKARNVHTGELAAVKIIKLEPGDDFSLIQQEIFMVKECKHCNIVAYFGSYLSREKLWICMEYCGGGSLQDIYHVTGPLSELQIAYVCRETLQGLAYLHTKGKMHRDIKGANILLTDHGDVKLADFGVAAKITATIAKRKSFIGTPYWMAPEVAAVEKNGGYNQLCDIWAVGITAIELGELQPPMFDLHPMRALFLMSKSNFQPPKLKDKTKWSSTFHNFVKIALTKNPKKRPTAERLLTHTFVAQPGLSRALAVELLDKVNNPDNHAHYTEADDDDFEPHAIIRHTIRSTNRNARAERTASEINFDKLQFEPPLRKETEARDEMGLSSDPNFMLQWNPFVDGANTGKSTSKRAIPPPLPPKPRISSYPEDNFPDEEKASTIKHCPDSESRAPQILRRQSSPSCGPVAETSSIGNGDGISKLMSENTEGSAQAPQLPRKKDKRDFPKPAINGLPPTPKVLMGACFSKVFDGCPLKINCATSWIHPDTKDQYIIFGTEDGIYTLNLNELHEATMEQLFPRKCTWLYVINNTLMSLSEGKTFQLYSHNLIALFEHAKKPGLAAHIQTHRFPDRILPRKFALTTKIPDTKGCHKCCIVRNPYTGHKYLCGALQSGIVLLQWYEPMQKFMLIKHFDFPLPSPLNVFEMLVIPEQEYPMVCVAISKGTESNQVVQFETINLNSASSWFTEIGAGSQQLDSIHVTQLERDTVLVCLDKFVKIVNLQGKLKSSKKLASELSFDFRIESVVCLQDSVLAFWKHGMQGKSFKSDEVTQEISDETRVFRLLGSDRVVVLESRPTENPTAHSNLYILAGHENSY

CN(C(=O)CN1CCOCC1)c1ccc2sc3c(-c4cccc5c(=O)cc(N6CC7CCC(C6)O7)oc45)cccc3c2c1 [NU5455]
inhibition at 1 µM: -2%
